Experimental data reported in the supplement of paper PMC10307832.

Key:
Experiment in all cases: relative viability (nuclei count vs DMSO), 5 days (fraction); higher = more cells survive
[1] = compound: COC1=CC=C(C=C1)CN2C=CC3=C2C=C(C=C3)C(=O)NO + NC(=O)Nc1cc(-c2cccc(F)c2)sc1C(=O)N[C@H]1CCCNC1 [AZD7762] (partner 0.2 µM)
Procedure, shortened: (§1)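 One day after seeding in 1536-well plates, lung cancer cell lines were dosed by pin tool. Dosing was either single-drug or a fixed anchor-drug dose plus five library-drug doses (not always all listed) in √10 steps. After 5 days, nuclei were stained in one fix-and-stain step and counted on 4× images, and relative viability is the nuclei count of treated wells over that of vehicle wells, given as the median of duplicate plates.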

[2] = compound: COC1=CC=C(C=C1)CN2C=CC3=C2C=C(C=C3)C(=O)NO + O=C(c1cc(Cc2n[nH]c(=O)c3ccccc23)ccc1F)N1CCN(C(=O)C2CC2)CC1 [Olaparib] (partner 8 µM)
Procedure, shortened: as §1

[3] = compound: C[C@]1(c2nc3c(C(N)=O)cccc3[nH]2)CCCN1 [Veliparib] + COc1cc2c(Oc3ccc(NC(=O)C4(C(=O)Nc5ccc(F)cc5)CC4)cc3F)ccnc2cc1OCCCN1CCOCC1 [Foretinib] (partner 0.25 µM)
Procedure, shortened: as §1

[4] = compound: C[C@]1(c2nc3c(C(N)=O)cccc3[nH]2)CCCN1 [Veliparib] + C[C@@H](Oc1cc(-c2cnn(C3CCNCC3)c2)cnc1N)c1c(Cl)ccc(F)c1Cl [Crizotinib] (partner 1 µM)
Procedure, shortened: as §1

Row | Cell Line | relative viability ([1]; first compound 0.253 µM) | relative viability ([1]; first compound 0.8 µM) | relative viability ([1]; first compound 2.53 µM) | relative viability ([1]; first compound 8 µM) | relative viability ([2]; first compound 0.253 µM) | relative viability ([2]; first compound 0.8 µM) | relative viability ([2]; first compound 2.53 µM) | relative viability ([2]; first compound 8 µM) | relative viability ([3]; first compound 0.02 µM) | relative viability ([3]; first compound 0.06325 µM) | relative viability ([3]; first compound 0.2 µM) | relative viability ([3]; first compound 0.6325 µM) | relative viability ([3]; first compound 2 µM) | relative viability ([4]; first compound 0.02 µM) | relative viability ([4]; first compound 0.06325 µM) | relative viability ([4]; first compound 0.2 µM) | relative viability ([4]; first compound 0.6325 µM) | relative viability ([4]; first compound 2 µM) | relative viability ([1]; first compound 0.08 µM) | relative viability ([2]; first compound 0.08 µM)
1 | NCI-H1944 | 0.516 | 0.481 | 0.475 | 0.428 | 0.425 | 0.422 | 0.423 | 0.374 | 0.806 | 0.906 | 0.731 | 0.817 | 0.813 | 0.995 | 1.04 | 0.951 | 0.965 | 0.976 |  | 
2 | NCI-H1975 | 0.766 | 0.775 | 0.768 | 0.576 | 0.815 | 0.697 | 0.678 | 0.785 | 1.12 | 0.96 | 0.903 | 0.881 | 0.979 | 0.964 | 1.12 | 0.977 | 0.93 | 0.89 | 0.655 | 0.77
3 | NCI-H1993 | 0.745 | 0.857 | 0.8 | 0.85 | 1.31 | 1.25 | 1.06 | 0.885 | 0.674 | 0.7 | 0.789 | 0.828 | 0.79 | 0.836 | 0.822 | 0.815 | 0.787 | 0.771 | 0.746 | 0.699
4 | NCI-H2085 | 0.953 | 1.07 | 1 | 0.942 | 0.723 | 0.842 | 0.777 | 0.768 |  | 0.787 | 0.909 | 0.647 | 1.15 | 0.9 | 0.805 | 0.702 | 0.738 | 0.809 | 0.971 | 0.803
5 | NCI-H2087 | 1.24 | 1.5 | 1.17 | 1.25 | 0.595 | 0.676 | 0.524 | 0.56 | 1.04 | 1.04 | 0.999 | 1.16 | 1.08 | 0.729 | 0.722 | 0.831 | 0.806 | 0.61 | 1.31 | 0.564
6 | NCI-H2126 | 1.03 | 0.992 | 1.09 | 0.962 | 0.945 | 0.961 | 0.956 | 0.874 | 1.19 | 1.2 | 1.26 | 1.31 | 1.1 | 0.966 | 1.02 | 0.988 | 0.988 | 0.933 | 1 | 0.869
7 | NCI-H2170 | 0.797 | 0.849 | 0.826 | 0.711 | 0.556 | 0.635 | 0.648 | 0.523 | 0.977 | 1 | 0.963 | 0.942 | 1.03 | 1.23 | 1.24 | 1.21 | 1.14 | 1.14 | 0.859 | 0.55
8 | NCI-H2347 | 0.748 | 0.967 | 0.732 | 0.677 | 0.53 | 0.651 | 0.67 | 0.524 | 0.977 | 0.545 | 0.763 | 0.802 | 0.844 | 0.798 | 0.839 | 0.678 | 0.652 | 0.616 | 0.598 | 0.53
